Target: T1, human 11β-HSD1 enzyme (Homo sapiens, UniProt P28845)
T1 construct: stably transfected with a construct containing the full-length gene coding for the human 11β-HSD1 enzyme; expressed in transfected cells; host or cells: HEK293 (HEK293/11β-HSD1 cells)
Assay: Cellular in vitro 11β-HSD1 enzyme inhibition assay (SPA, HEK293/11β-HSD1 cells)
Assay type: cell-based
Conditions: HEK293, less than or equal to 1000 nM (1 μM)
Protocol: Cellular In Vitro 11β-HSD1 Enzyme Inhibition Assay
Compounds were assessed by a Scintillation Proximity Assay (SPA) performed according to the following protocol:
HEK293 cells were stably transfected with a construct containing the full-length gene coding for the human 11β-HSD1 enzyme to create HEK293/11β-HSD1 cells. Cells were routinely cultured in DMEM containing 10% calf foetal serum, 1% glutamine, and 1% penicillin and streptomycin. Prior to assay, cells were plated at 2×10^4 cells/well in 96-well poly-D-Lys coated flat-bottomed microplates and incubated in 5% CO2, 95% O2 at 37° C. for 24 hours. The media in each well was removed immediately before assay.
Compounds to be tested were dissolved in DMSO at 10 mM and serially diluted into water containing 10% DMSO. Diluted compounds at a volume of 10 μL were added to wells of a 96-well V-bottomed microplate. […] This solution (100 μL/well) was transferred to the plate containing the cells. The plate was then incubated in 5% CO2, 95% O2 at 37° C. for 2 hours.
Following this incubation, 50 μL of the assay solution was transferred to each well of a 96-well scintillation microplate. A mixture consisting of anti-mouse YSi SPA beads, pre-mixed with anti-cortisol antibody in assay buffer (50 mM Tris.HCl, pH 7.0; 300 mM NaCl; 1 mM EDTA, 5% glycerol) was prepared and 50 μL added to each well of the scintillation microplate. An adhesive strip was applied to the microplate and the plate gently shaken for at least 2 hours at room temperature, and then spun briefly on a low speed centrifuge. The plate was read on a scintillation counter suitable for 96-well microplates. For the calculation of percentage inhibition, a series of wells were added to the plate that represented the assay maximum and the assay minimum: one set that contained substrate without cells (mimimum) and another set that contained substrate and cells without any compound (maximum).
The calculation of median inhibitory concentration (IC50) values for the compounds was performed using GraphPad Prism® software. Dose-response curves for each compound were plotted as fractional inhibition and data fitted to the four parameter logistic equation.

T1 sequence (P28845 whole entry): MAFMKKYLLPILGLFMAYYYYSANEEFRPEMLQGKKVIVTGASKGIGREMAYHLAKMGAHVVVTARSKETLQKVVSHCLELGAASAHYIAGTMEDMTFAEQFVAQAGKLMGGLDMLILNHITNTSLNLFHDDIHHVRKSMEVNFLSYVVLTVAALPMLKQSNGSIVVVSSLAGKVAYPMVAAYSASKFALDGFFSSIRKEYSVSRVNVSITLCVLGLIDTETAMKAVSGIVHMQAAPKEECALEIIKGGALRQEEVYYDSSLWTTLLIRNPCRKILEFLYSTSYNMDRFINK

Compound | IC50
CC1(C)CC2CC(C)(CN2C(=O)c2csc(C3CCNCC3)c2)C1 (single isomer, unassigned) [CC-075, (5-Piperidin-4-yl-thiophen-3-yl)-(1,3,3-trimethyl-6-aza-bicyclo[3.2.1]oct-6-yl)-methanone] | ≤ 1000 nM
CC(=O)N1CCC(c2cc(C(=O)N3CCC[C@@H]4CCCC[C@@H]43)cs2)CC1 (single isomer, unassigned) [CC-114, cis-1-{4-[4-(Octahydro-quinoline-1-carbonyl)-thiophen-2-yl]-piperidin-1-yl}-ethanone] | ≤ 1000 nM
O=C(c1csc(C2CCNCC2)c1)N1CCCCC1c1ccccc1 (single isomer, unassigned) [CC-130, cis-(2-Phenyl-piperidin-1-yl)-(5-piperidin-4-yl-thiophen-3-yl) methanone] | ≤ 1000 nM
O=C(c1csc(C2CCOCC2)c1)N1CCC[C@@H]2CCCC[C@@H]21 (single isomer, unassigned) [CC-140, cis-(octahydro-quinolin-1-yl)-[5-(tetrahydro-pyran-4-yl)-thiophen-3-yl]-methanone] | ≤ 1000 nM
O=C(c1csc(C2CCNCC2)c1)N1CCC[C@@H]2CCCC[C@@H]21 (single isomer, unassigned) [CC-159, cis-(octahydro-quinolin-1-yl)-(5-piperidin-4-yl-thiophen-3-yl)-methanone] | ≤ 1000 nM
CCc1cc(C(=O)N2CCCCC2)c(Br)s1 [AA-002, (2-Bromo-5-ethyl-thiophen-3-yl)-piperidin-1-yl-methanone] | ≤ 1000 nM
CCc1cc(C(=O)N2CCCCCC2)c(Cl)s1 [AA-004] | ≤ 1000 nM
CCc1cc(C(=O)N2CCCCCC2)c(Br)s1 [AA-005] | ≤ 1000 nM
CCc1cc(C(=O)N2CCCC3CCCCC32)cs1 (stereo not drawn) [AA-009] | ≤ 1000 nM
CCCCCc1cc(C(=O)N2CCCC3CCCCC32)cs1 (stereo not drawn) [AA-011] | ≤ 1000 nM
CCc1cc(C(=O)N2CCCC3CCCCC32)c(Cl)s1 (stereo not drawn) [AA-013] | ≤ 1000 nM
CCc1cc(C(=O)N2CC3CC4CC(C3)CC2C4)cs1 [AA-015] | ≤ 1000 nM
CCc1cc(C(=O)N2C3CCCC2CC3)cs1 [AA-016] | ≤ 1000 nM
CCCCCc1cc(C(=O)N2CC3(C)CC2CC(C)(C)C3)cs1 (stereo not drawn) [AA-017] | ≤ 1000 nM
CC1(C)CC2CC(C)(CN2C(=O)c2csc(CC(F)(F)F)c2)C1 (stereo not drawn) [AA-018] | ≤ 1000 nM
CCc1cc(C(=O)N2CCCC(C)(C)CC2)cs1 [AA-019] | ≤ 1000 nM

Compound | IC50
CCc1cc(C(=O)N2CCCCC2c2ccccc2)cs1 (stereo not drawn) [AA-021] | ≤ 1000 nM
Cc1ccccc1OCc1cc(C(=O)N2CCCCC2)cs1 [BB-002, Piperidin-1-yl-(5-o-tolyloxymethyl-thiophen-3-yl)-methanone] | ≤ 1000 nM
COCc1cc(C(=O)N2CC3(C)CC2CC(C)(C)C3)cs1 (stereo not drawn) [BB-006] | ≤ 1000 nM
O=C(c1csc(C2CCOCC2)c1)N1CCCCCC1 [CC-004] | ≤ 1000 nM
CC1(C)CCCN(C(=O)c2cc(C3CCOCC3)sc2Cl)C1 [CC-005] | ≤ 1000 nM
O=C(c1cc(C2CCOCC2)sc1Cl)N1CCCCCC1 [CC-006, Azepan-1-yl-[2-chloro-5-(tetrahydro-pyran-4-yl)-thiophen-3-yl]methanone] | ≤ 1000 nM
O=C(OCc1ccccc1)N1CCC(c2cc(C(=O)N3CCCCCC3)cs2)CC1 [CC-007, 4-[4-(Azepane-1-carbonyl)-thiophen-2-yl]-piperidine-1-carboxylic acid benzyl ester] | ≤ 1000 nM
O=C(c1csc(C2CCNCC2)c1)N1CCCCC1c1ccccc1 (stereo not drawn) [CC-017, (2-Phenyl-piperidin-1-yl)-(5-piperidin-4-yl-thiophen-3-yl)methanone] | ≤ 1000 nM
CC1(C)CCCN(C(=O)c2csc(C3CCOCC3)c2)CC1 [CC-021] | ≤ 1000 nM
CC1(C)CCCCN(C(=O)c2csc(C3CCOCC3)c2)C1 [CC-022] | ≤ 1000 nM
CC(=O)N1CCC(c2cc(C(=O)N3CCCCC(C)(C)C3)cs2)CC1 [CC-026] | ≤ 1000 nM
O=C(c1csc(C2CCOCC2)c1)N1CCCC2CCCCC21 (stereo not drawn) [CC-028] | ≤ 1000 nM
O=C(c1cc(C2CCOCC2)sc1Cl)N1CCCC2CCCCC21 (stereo not drawn) [CC-030] | ≤ 1000 nM
O=C(c1cc(C2CCOCC2)sc1Cl)N1CCC2CCCCC2C1 (stereo not drawn) [CC-031] | ≤ 1000 nM
O=C(c1csc(C2CCNCC2)c1)N1CCCC2CCCCC21 (stereo not drawn) [CC-040] | ≤ 1000 nM
O=C(c1csc(C2=CCNCC2)c1)N1CCCC2CCCCC21 (stereo not drawn) [CC-047] | ≤ 1000 nM

Same assay, conditions: HEK293, more than 1000 nM (1.0 μM) and less than or equal to 30 μM

Compound | IC50
O=C(c1csc(C2CCNCC2)c1)N1CCCC2CCCCC21 (single isomer, unassigned) [CC-045, trans-(Octahydro-quinolin-1-yl)-(5-piperidin-4-yl-thiophen-3-yl)-methanone] | 1000 to 30000 nM
CC1(C)CC2CC(C)(CN2C(=O)c2csc(C3CCNCC3)c2)C1 (single isomer, unassigned) [CC-076, (5-Piperidin-4-yl-thiophen-3-yl)-(1,3,3-trimethyl-6-aza-bicyclo[3.2.1]oct-6-yl)-methanone] | 1000 to 30000 nM
CCc1cc(C(=O)N2CCCCC2)c(C#N)s1 [AA-003, 5-Ethyl-3-(piperidine-1-carbonyl)-thiophene-2-carbonitrile] | 1000 to 30000 nM
CCc1cc(C(=O)N2CCCCCC2)c(C#N)s1 [AA-006] | 1000 to 30000 nM
CCc1cc(C(=O)N2CCC(c3ccccc3)C2)c(Cl)s1 (stereo not drawn) [AA-008] | 1000 to 30000 nM
CCc1cc(C(=O)N2CCC3CCCCC3C2)cs1 (stereo not drawn) [AA-010] | 1000 to 30000 nM
CCc1cc(C(=O)N2CCCC(F)(F)CC2)cs1 [AA-020] | 1000 to 30000 nM
O=C(c1csc(COc2ccccc2)c1)N1CCCCC1 [BB-001] | 1000 to 30000 nM
O=C(c1csc(COc2ccc(-n3ccnc3)cc2)c1)N1CCCCC1 [BB-003] | 1000 to 30000 nM
O=C(c1csc(COc2ccc(-n3cncn3)cc2)c1)N1CCCCC1 [BB-004] | 1000 to 30000 nM
COCc1cc(C(=O)N2CCCCCC2)cs1 [BB-005] | 1000 to 30000 nM
O=C(c1csc(C2CCOCC2)c1)N1CCCCC1 [CC-001, Piperidin-1-yl-[5-(tetrahydro-pyran-4-yl)-thiophen-3-yl]-methanone] | 1000 to 30000 nM
CC1CCCCN1C(=O)c1csc(C2CCOCC2)c1 (stereo not drawn) [CC-002] | 1000 to 30000 nM
O=C(c1csc(C2CCNCC2)c1)N1CCCCCC1 [CC-008, Azepan-1-yl-(5-piperidin-4-yl-thiophen-3-yl)-methanone] | 1000 to 30000 nM
O=C(OCc1ccccc1)N1CCC(c2cc(C(=O)N3CCCCCC3)c(Cl)s2)CC1 [CC-009, 4-[4-(Azepane-1-carbonyl)-5-chloro-thiophen-2-yl]-piperidine-1-carboxylic acid benzyl ester] | 1000 to 30000 nM
CC1(C)CCCN(C(=O)c2csc(N3CCOCC3)c2)C1 [CC-010, (3,3-Dimethyl-piperidin-1-yl)-(5-morpholin-4-yl-thiophen-3-yl)-methanone] | 1000 to 30000 nM
CC1(C)CCN(C(=O)c2csc(C3CCOCC3)c2)CC1 [CC-011] | 1000 to 30000 nM

Compound | IC50
O=C(c1csc(C2CCNCC2)c1)N1CCCCC1c1ccccn1 (stereo not drawn) [CC-012] | 1000 to 30000 nM
CC1(C)CCCN(C(=O)c2csc(C3CCNCC3)c2)C1 [CC-013] | 1000 to 30000 nM
CC1(C)CCCN(C(=O)c2csc(C3CCCNC3)c2)C1 (stereo not drawn) [CC-014] | 1000 to 30000 nM
O=C(c1csc(C2CCCNC2)c1)N1CCCCCC1 (stereo not drawn) [CC-015, Azepan-1-yl-(5-piperidin-3-yl-thiophen-3-yl)-methanone] | 1000 to 30000 nM
CC(=O)N1CC=C(c2cc(C(=O)N3CCCCCC3)cs2)CC1 [CC-016, 1-{4-[4-(Azepane-1-carbonyl)-thiophen-2-yl]-3,6-dihydro-2H-pyridin-1-yl}-ethanone] | 1000 to 30000 nM
O=C(c1csc(C2CCNCC2)c1)N1CCCC(c2ccccc2)C1 (stereo not drawn) [CC-018] | 1000 to 30000 nM
C[C@@H]1CN(C(=O)c2csc(C3CCNCC3)c2)C[C@H](C)O1 [CC-019] | 1000 to 30000 nM
O=C(c1csc(C2CCNCC2)c1)N1CCCC1c1ccccc1 (stereo not drawn) [CC-020] | 1000 to 30000 nM
CC1(C)CCCN(C(=O)c2csc(C3CCNCC3)c2)CC1 [CC-023, (4,4-dimethyl-azepan-1-yl)-(5-piperidin-4-yl-thiophen-3-yl)-methanone] | 1000 to 30000 nM
CC1(C)CCCCN(C(=O)c2csc(C3CCNCC3)c2)C1 [CC-024] | 1000 to 30000 nM
O=C(c1csc(C2CCOCC2)c1)N1CCC2CCCCC2C1 (stereo not drawn) [CC-029] | 1000 to 30000 nM
O=C(OCc1ccccc1)N1CCC(c2cc(C(=O)N3CCCC4CCCCC43)cs2)CC1 (stereo not drawn) [CC-032] | 1000 to 30000 nM
CC(=O)N1CCC(c2cc(C(=O)N3CCCC4CCCCC43)cs2)CC1 (stereo not drawn) [CC-036] | 1000 to 30000 nM
CC(=O)N1CCC(c2cc(C(=O)N3CCN4CCCCC4C3)cs2)CC1 (stereo not drawn) [CC-037] | 1000 to 30000 nM
O=C(c1csc(C2CCNCC2)c1)N1CCN2CCC[C@H]2C1 [CC-041] | 1000 to 30000 nM
O=C(c1csc(C2CCNCC2)c1)N1CCN2CCCCC2C1 (stereo not drawn) [CC-042] | 1000 to 30000 nM
O=C(c1csc(C2CCCNC2)c1)N1CCCC2CCCCC21 (stereo not drawn) [CC-043] | 1000 to 30000 nM

Source: patent publication US8362008B2 (The University Of Edinburgh, priority 2007, dated 2013)
